This test concerns the target glutathione S-transferase (GST-GSH binding). As to the kind of experiment: GST–glutathione interaction disruption – biochemical, multiplex beads, flow cytometry, HPSMTB buffer, profiling panel (AID 1324).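 On all read-outs here: glutathione beads loaded with GST-green fluorescent protein and no fluorescent Bim peptide.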 To be noted: multiplex bead flow cytometry, MCF; for percent span inhibition: hits give high values, concentration not given here. (In flow cytometry, cells or beads pass a laser one at a time.)

Each structure is given as a SMILES string. Active and inactive are the calls of the source. How the calls were made is not given here.

The term EC50 denotes the midpoint of the concentration-response curve.

With `CC1(C)CC(=O)C(C=NCCN2CCN(CCc3ccccc3)CC2)=C(O)C1`, the percent span inhibition result was “inactive”. Still for that read-out and setting: the result for `Cc1cc(-c2csc(N)n2)c(C)n1C` reads “inactive”; that for `CC1N(C)c2cccc3cccc(c23)N1C`, “inactive”.

As for `COc1ccccc1NC(=O)CSc1nnc(-c2ccco2)n1Cc1ccco1`, the percent span inhibition entry is “inactive”. The same measure, in the same setting: the result for `COC(=O)CSc1nccc(-c2cccs2)n1` reads “inactive”. On the same count and under the same terms, under `COc1ccc2oc(-c3ccccc3)c(C(=O)N3CCOCC3)c2c1` stands “inactive”. Turning to `Clc1nc2ccccc2cc1/C=N/Nc1nc2ccccc2[nH]1`, the percent span inhibition entry was “inactive”. Same read-out and setting: under `O=C(CSc1nnc(-c2cccs2)n1Cc1ccco1)c1ccc2c(c1)OCO2` stands “inactive”; under `Cc1nc2scc(-c3ccccc3)c2c(=O)n1N=C1C=CC(=O)C=C1`, “inactive”. The same measure, in the same setting: under `CCOc1cc(/C=N/NC(=O)c2cccs2)cc([N+](=O)[O-])c1O` stands “inactive”; under `COC(=O)c1sc(NC(=O)c2ccc(Cn3cc(Cl)cn3)o2)c(C#N)c1C`, “inactive”; under `Cc1cc(-c2nnc3n2N=C(c2ccc(-c4ccccc4)cc2)CS3)n[nH]1`, “inactive”. As to `COc1ccc2nc(NC(=O)c3ccc(-c4cccc([N+](=O)[O-])c4)o3)sc2c1`, the percent span inhibition entry was “inactive”. The same measure, in the same setting: under `CCOc1ccccc1CNc1ccc(O)cc1` stands “inactive”.

Consider `CCn1c(SCC(=O)Nc2ccccc2-c2ccccc2)nnc1-c1ccoc1C`, for which the percent span inhibition result is “inactive”.

Turning to `CN1CCN(C2=C(Cl)C(=O)C(c3cnc(N4CCCCC4)s3)=C(Cl)C2=O)CC1`, the EC50 is 220 nM. As for `CCOC(=O)C1=C(Cc2ccc(C)cc2)C(=O)c2ccccc2C1=O`, the percent span inhibition result was “inactive”.

Take `O=C(/C=C\c1ccc(-c2ccccc2)o1)c1ccccc1`: the percent span inhibition entry is “inactive”. Consider `CCOc1cccc(CNc2ccc(O)cc2)c1OCc1ccccc1Cl`, for which the percent span inhibition result was “inactive”.

Take `CS(=O)(=O)NN1C(=O)c2ccccc2NC1c1cccs1` (stereo unspecified): the percent span inhibition entry was “inactive”. On the same count and under the same terms, the result for `C=CCN1C(=O)/C(=C/c2ccsc2)SC1=S` reads “inactive”; that for `Cc1ccc(-n2[nH]c(C)c(/C=N/Nc3ccc([N+](=O)[O-])cc3[N+](=O)[O-])c2=O)cc1C`, “inactive”.

Consider `O=C(C1=NN[C@@H]2C(=O)N(c3ccccc3C(F)(F)F)C(=O)[C@H]12)c1ccc2ccccc2n1`, for which the percent span inhibition entry was “inactive”.

`CCCCOC(=O)c1nc(Cl)c(Cl)c(N)c1Cl`: the percent span inhibition entry is “inactive”. Consider `O=C(Oc1ccc(-c2cnc3ccccc3n2)cc1)c1cccc([N+](=O)[O-])c1`, for which the percent span inhibition result is “inactive”. Still for that read-out and setting: the result for `c1ccc(-c2nnc(OCCN3CCOCC3)c3ccccc23)cc1` reads “inactive”; that for `CC(=O)c1ccc(NC(=O)c2ccc3nc(-c4ccco4)c(-c4ccco4)nc3c2)cc1`, “inactive”. In the case of `Cc1ccc(O)c(NC2=C(Cl)C(=O)N(Cc3ccccc3)C2=O)c1`, the EC50 result is “inactive”. `Cc1ccc(-c2ccc(/C=C/C(=O)c3ccccc3)o2)cc1`: the percent span inhibition result was “inactive”. Take `NC(=O)c1c(NC(=O)C2CCCO2)sc2c1CCCC2` (stereo unspecified): the percent span inhibition entry was “inactive”. For the compound `C/C(=N\NC(=O)Cc1cccn1C)c1ccc2ccccc2c1`, the percent span inhibition result was “inactive”. Consider `CNC(=S)N/N=C/C1=CCC2CC1C2(C)C` (stereo unspecified), for which the percent span inhibition entry is “inactive”.

With `O=C(CCl)Nc1cccc2ncccc12`, the percent span inhibition entry was “inactive”. On to `COC(=O)c1cc(OC)c(OC)cc1NC(=O)Nc1cccc(C(C)=O)c1`, for which the percent span inhibition entry is “inactive”. Regarding `O=C(Nc1cccc(C(F)(F)F)c1)c1ccc2nc(-c3ccco3)c(-c3ccco3)nc2c1`, the percent span inhibition entry is “inactive”. On the same count and under the same terms, under `COc1ccc(NC(=O)c2cccs2)cc1` stands “inactive”.

The values above are taken from PubChem BioAssay AID1324 (NMMLSC, 2008).
